# Reference: publication PMC5467316, “Antiviral Activity of Fridericia formosa (Bureau) L. G. Lohmann (Bignoniaceae) Extracts and Constituents” (Journal of Tropical Medicine, 2017)
# Read-outs that look alike come from different tables or passages of the source.
# What was measured:
# Enterovirus 71 = system: Enterovirus 71; set-up: method as in PMID 24679044; settings: in vitro; read-out: EC50 against Enterovirus 71; cited from earlier work
# Vero cells = system: Vero cells; set-up: method as in PMID 24679044; settings: cited from earlier work
# [1] = system: hepatitis B antigen (HBeAg); set-up: method as in PMID 23576173; settings: cited from earlier work
# [2] = system: hepatitis B surface antigen (HBsAg); set-up: method as in PMID 23576173; settings: cited from earlier work
# [3] = Cytotoxicity assay (MTT), LLCMK2 cells; type: cell-based; settings: rhesus monkey
# [4] = Cytotoxicity assay (MTT), Vero cells; type: cell-based; settings: African green monkey
# [5] = system: vaccinia virus Western Reserve (VACV-WR); test: microbe, parasite or virus in culture; type: cell-based; settings: for EC50: Vaccinia virus Western Reserve, 48 h; for antiviral activity against VACV-WR (in words): statement in text
# [6] = system: human herpes virus 1 (HSV-1); test: microbe, parasite or virus in culture; type: cell-based; settings: for EC50: Human alphaherpesvirus 1, 48 h; for antiviral activity against HSV-1 (in words): statement in text
# [7] = system: dengue virus type 2 (DENV-2); test: microbe, parasite or virus in culture; type: cell-based; settings: for antiviral activity against DENV-2 (in words): statement in text; for EC50: Dengue virus, DENV2, 72 h
# HSV-1 = system: HSV-1; set-up: method as in PMID 16350858; settings: previously reported; read-out: EC50 against HSV-1; cited from earlier work
# [8] = system: murine encephalomyocarditis virus (EMCV); type: cell-based; settings: statement in text
# [9] = set-up: method as in PMID 14977449; settings: clinical tests; cited from earlier work
# HIV-1 replication = system: HIV-1 replication; set-up: method as in PMID 24066838, PMID 21610656; settings: dose dependent manner; cited from earlier work
# [10] = read-out: VACV-WR EC50 (value in parentheses), viral titer TCID50/mL 1.0 × 10^6 in 48 h, MTT, concentration in µM
# [11] = read-out: VACV-WR EC50, viral titer TCID50/mL 1.0 × 10^6 in 48 h, MTT
# [12] = read-out: HSV-1 EC50 (value in parentheses)
compound,measurement,setting,value
euxanthone,EC50,Enterovirus 71,12.2 µM
same,CC50,Vero cells,36.6 µM
O=c1c2c(O)cc(O)cc2oc2c(O)ccc(O)c12 [norbellidifolin],EC50,[1],< 620 µM
same,EC50,[2],770 µM
"Nc1nc2c(ncn2COCCO)c(=O)[nH]1 [Acyclovir, reference compound]",CC50,"[3]; MTT, exposure 48 and 72 h, read-out: LLCMK2 CC50",> 1000 µg/mL
same,CC50,"[4]; MTT, exposure 48 and 72 h, read-out: Vero CC50",> 1000 µg/mL
"COc1cc(O)c2c(=O)c3c(O)ccc(O)c3oc2c1 [1,5,8-trihydroxy-3-methoxyxanthone]",EC50,[1],350 µM
same,EC50,[2],> 980 µM
"O=c1cc(-c2ccccc2)oc2cc(O)cc(O)c12 [Chrysin (4), 5,7-Dihydroxy-2-phenyl-4H-1-benzopyran-4-one]",CC50,[3],> 500 µg/mL
same,EC50,[5]; [10],486 µM
same,EC50,[5]; [11],> 100 µg/mL
same,antiviral activity against VACV-WR (in words),[5],low activity
same,VACV-WR EC50,"[5]; viral titer TCID50/mL 1.0 × 10^6 in 48 h, MTT",123.5 ± 10.5 µg/mL
same,EC50,[6]; read-out: HSV-1 EC50,> 100 µg/mL
same,EC50,[6]; [12],576 µM
same,antiviral activity against HSV-1 (in words),[6],low activity
same,antiviral activity against DENV-2 (in words),[7],did not inhibit the replication cycle
same,EC50,HSV-1,2500 nM
same,antiviral activity against EMCV (in words),[8],did not inhibit the replication cycle
same,effect on testosterone levels in men (in words),[9],no effect
same,CC50,[4],> 500 µg/mL
"O=c1c2cc(O)ccc2oc2cc(O)c([C@@H]3O[C@H](CO)[C@@H](O)[C@H](O)[C@H]3O)c(O)c12 [2-C-β-D-glucopyranosyl-1,3,7-trihydroxyxanthone]",EC50,[1],40 µM
same,EC50,[2],210 µM
"O=c1c2cc(O)c(O)cc2oc2cc(O)c([C@@H]3O[C@H](CO)[C@@H](O)[C@H](O)[C@H]3O)c(O)c12 [Mangiferin (1), 2-β-D-Glucopyranosyl-1,3,6,7-tetrahydroxy-9H-xanthen-9-one]",CC50,[3],> 500 µg/mL
same,EC50,[5]; [10],432 µM
same,EC50,[5]; [11],183 ± 14.3 µg/mL
same,antiviral activity against VACV-WR (in words),[5],low antiviral effect
same,antiviral activity against VACV-WR (in words),[5]; listed as mangiferin,practically inactive
same,EC50,[6]; read-out: HSV-1 EC50,268 µg/mL
same,EC50,[6]; [12],635 µM
same,antiviral activity against HSV-1 (in words),[6],low antiviral effect
same,antiviral activity against HSV-1 (in words),[6]; listed as mangiferin,practically inactive
same,EC50,[7]; read-out: DENV-2 EC50,266 µg/mL
same,EC50,[7]; read-out: DENV-2 EC50 (value in parentheses),629 µM
same,antiviral activity against DENV-2 (in words),[7],low antiviral effect
same,antiviral activity against DENV-2 (in words),[7]; listed as mangiferin,practically inactive
same,inhibitory activity on HIV-1 replication (in words),HIV-1 replication,good inhibitory activity
same,antiviral activity against EMCV (in words),[8],low antiviral effect
same,antiviral activity against EMCV (in words),[8]; listed as mangiferin,practically inactive
same,CC50,[4],> 500 µg/mL
